Measured values as given in patent publication US20240092835A1, “NOVEL PEPTIDES CAPABLE OF ALTERING NK CELL ACTIVITY” (Massachusetts Institute of Technology, priority 2022, published 2024).
“Also recorded” adds a separate entry of the source. Where no end group is shown, it is not given here.

test system: NKG2A+/NKG2C− NK cells; experiment: NK cell activation markers in NKG2A+/NKG2C- NK cells incubated with peptide and K562 expressing HLA-E (inhibition); format: cell-based, human; details: K562 expressing HLA-E; CD107a, IFNG, TNF, CCL3
How it was run: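 Read-out: % NK cells positive for surface activation markers; a rise indicates activation, a fall indicates inhibition. Targets were K562 cells expressing HLA-E, loaded with human- or HCMV-proteome-derived peptides.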

Sequence	effect on NKG2A+/NKG2C− NK cell inhibition (in words)
TLPKRGLFL [human2, TLPKRGLFL]	mild inhibitory effects

same assay, conditions: K562 expressing HLA-E; CD107a, IFNG, TNF, CCL3; listed as SEQ ID NO. 2

Sequence	effect on NKG2A+/NKG2C− NK cell inhibition (in words)
TGPWRSLWI [human3, TGPWRSLWI]	no or minimal effect

same assay, conditions: K562 expressing HLA-E; CD107a, IFNG, TNF, CCL3; listed as SEQ ID NO. 3

Sequence	effect on NKG2A+/NKG2C− NK cell inhibition (in words)
VNPGRSLFL [human5, VNPGRSLFL]	no or minimal effect

same assay, conditions: K562 expressing HLA-E; CD107a, IFNG, TNF, CCL3; listed as SEQ ID NO. 5

Sequence	effect on NKG2A+/NKG2C− NK cell inhibition (in words)
TAPARTMFL [human13, TAPARTMFL]	no or minimal effect

same assay, conditions: K562 expressing HLA-E; CD107a, IFNG, TNF, CCL3; listed as SEQ ID NO. 7

Sequence	effect on NKG2A+/NKG2C− NK cell inhibition (in words)
QMPSRSLLF [human1, QMPSRSLLF]	mild inhibitory effects

same assay, conditions: K562 expressing HLA-E; CD107a, IFNG, TNF, CCL3; listed as h1

Sequence	effect on NKG2A+/NKG2C− NK cell inhibition (in words)
QMPSRSLLF [human1, QMPSRSLLF]	mild inhibitory effects; also recorded: strong inhibitory

same assay, conditions: K562 expressing HLA-E; CD107a, IFNG, TNF, CCL3; listed as h3

Sequence	effect on NKG2A+/NKG2C− NK cell inhibition (in words)
TGPWRSLWI [human3, TGPWRSLWI]	no effect

same assay, conditions: K562 expressing HLA-E; CD107a, IFNG, TNF, CCL3; listed as h5

Sequence	effect on NKG2A+/NKG2C− NK cell inhibition (in words)
VNPGRSLFL [human5, VNPGRSLFL]	no effect

same assay, conditions: K562 expressing HLA-E; CD107a, IFNG, TNF, CCL3; listed as h13

Sequence	effect on NKG2A+/NKG2C− NK cell inhibition (in words)
TAPARTMFL [human13, TAPARTMFL]	no effect

same assay, conditions: NKG2A+/NKG2C- NK cells, K562/HLA-E, Trial 1

Sequence	percentage of CCL3+ NK cells	percentage of CD107a+ NK cells	percentage of IFNG+ NK cells	percentage of TNF+ NK cells
QMPSRSLLF [human1, QMPSRSLLF]	31.8%	15.3%	4.26%	1.66%
TAPARTMFL [human13, TAPARTMFL]	52.5%	31.2%	13%	3.99%
TGPWRSLWI [human3, TGPWRSLWI]	54.6%	34.8%	15.5%	6.18%
TLPKRGLFL [human2, TLPKRGLFL]	17.5%	10.8%	2.35%	0.83%
VNPGRSLFL [human5, VNPGRSLFL]	51.6%	36.8%	16.9%	7.26%

same assay, conditions: NKG2A+/NKG2C- NK cells, K562/HLA-E, Trial 2

Sequence	percentage of CCL3+ NK cells	percentage of CD107a+ NK cells	percentage of IFNG+ NK cells	percentage of TNF+ NK cells
QMPSRSLLF [human1, QMPSRSLLF]	47%	25.7%	9.68%	3.94%
TAPARTMFL [human13, TAPARTMFL]	75.9%	50.6%	30.8%	13.8%
TGPWRSLWI [human3, TGPWRSLWI]	73.9%	47.2%	26.8%	12.4%
TLPKRGLFL [human2, TLPKRGLFL]	34.9%	13%	2.85%	1.25%
VNPGRSLFL [human5, VNPGRSLFL]	71.6%	48.4%	28.8%	14.6%

same assay, conditions: NKG2A+/NKG2C- NK cells, K562/HLA-E, Trial 3

Sequence	percentage of CCL3+ NK cells	percentage of CD107a+ NK cells	percentage of IFNG+ NK cells	percentage of TNF+ NK cells
QMPSRSLLF [human1, QMPSRSLLF]	28.8%	28.5%	15.5%	9.23%
TAPARTMFL [human13, TAPARTMFL]	52.6%	44.4%	31.7%	17%
TGPWRSLWI [human3, TGPWRSLWI]	55.1%	44.9%	32.1%	19.7%
TLPKRGLFL [human2, TLPKRGLFL]	17.3%	16.7%	7.56%	3.94%
VNPGRSLFL [human5, VNPGRSLFL]	55.3%	43.1%	30.8%	19.4%

same assay, conditions: NKG2A+/NKG2C- NK cells, K562/HLA-E, Trial 4

Sequence	percentage of CCL3+ NK cells	percentage of CD107a+ NK cells	percentage of IFNG+ NK cells	percentage of TNF+ NK cells
QMPSRSLLF [human1, QMPSRSLLF]	14.2%	14.6%	3.06%	2.61%
TAPARTMFL [human13, TAPARTMFL]	47.3%	37.6%	21.7%	12.6%
TGPWRSLWI [human3, TGPWRSLWI]	46.5%	37.7%	20.1%	12.5%
TLPKRGLFL [human2, TLPKRGLFL]	13.3%	15.1%	2.41%	1.74%
VNPGRSLFL [human5, VNPGRSLFL]	40.9%	33.4%	17.9%	10.7%

same assay, conditions: NKG2A+/NKG2C- NK cells, K562/HLA-E, Trial 5

Sequence	percentage of CCL3+ NK cells	percentage of CD107a+ NK cells	percentage of IFNG+ NK cells	percentage of TNF+ NK cells
QMPSRSLLF [human1, QMPSRSLLF]	25.5%	9.4%	2.48%	1.56%
TAPARTMFL [human13, TAPARTMFL]	48.9%	32.2%	16.9%	7.45%
TGPWRSLWI [human3, TGPWRSLWI]	49.6%	35.9%	19.2%	9.62%
TLPKRGLFL [human2, TLPKRGLFL]	29.3%	14.4%	5.78%	2.47%
VNPGRSLFL [human5, VNPGRSLFL]	44.2%	30.4%	16.5%	7.74%

same assay, conditions: NKG2A+/NKG2C- NK cells, K562/HLA-E, Trial 6

Sequence	percentage of CCL3+ NK cells	percentage of CD107a+ NK cells	percentage of IFNG+ NK cells	percentage of TNF+ NK cells
QMPSRSLLF [human1, QMPSRSLLF]	16.6%	13.3%	2.26%	1.77%
TAPARTMFL [human13, TAPARTMFL]	39.3%	28.2%	8.81%	5.68%
TGPWRSLWI [human3, TGPWRSLWI]	33.1%	25.7%	9.52%	5.43%
TLPKRGLFL [human2, TLPKRGLFL]	16.2%	14%	3.48%	2.18%
VNPGRSLFL [human5, VNPGRSLFL]	33.1%	26%	10.5%	6.36%

test system: NKG2A−/NKG2C+ NK cells; experiment: NKG2A-/NKG2C+ NK cell activation with peptide and RMA-S cells expressing HLA-E; format: cell-based; details: RMA-S cells expressing HLA-E, NKG2A−/NKG2C+ NK cells
Procedure: An antigen processing-defective lymphoma cell line (RMA-S), with a low-level expression of HLA-E, were incubated with the novel peptides to determine the inhibitory strength on NKG2A−/NKG2C+NK cells relative to positive control sequences with differential effects ([…] (SEQ ID NO: 19)/VMAPRTLFL (SEQ ID NO: 18)). The effects of the peptides on NK cell inhibition were determined by measuring four markers of NK cell activation (CD107a, IFNG, TNF, CCL3) in NKG2A−/NKG2C+NK cells (FIGS. 2A-2D). Activation was indicated by an increase in percent cells positive for cell surface markers.

Sequence	increase in CCL3+ NK cells (in words)	increase in CD107a+ NK cells (in words)	increase in IFNG+ NK cells (in words)	increase in TNF+ NK cells (in words)
TAPARTMFL [human13, TAPARTMFL]	slight increases	slight increases	no increase	no increase
TGPWRSLWI [human3, TGPWRSLWI]	slight increases	slight increases	no increase	no increase

same assay, conditions: RMA-S cells expressing HLA-E; listed as SEQ ID NO. 3

Sequence	NKG2A−/NKG2C+ NK cell activation relative to positive control peptides (in words)
VNPGRSLFL [human5, VNPGRSLFL]	strongest activation of NK cells, comparable with the positive control peptides for several markers assessed

same assay, conditions: RMA-S cells expressing HLA-E; listed as h5

Sequence	NKG2A−/NKG2C+ NK cell activation relative to positive control peptides (in words)
VNPGRSLFL [human5, VNPGRSLFL]	strongest NK cell activation, comparable with the positive control peptides for several markers assessed
